A short description of series [1]: MRT (0 to t) in Sprague-Dawley rat at 10 mg/kg, po measured upto 24 hrs by LC-MS/MS analysis. The series is classed as ADME, organism-based. The note with it: in vivo.
Series [2] is described as follows: Acute toxicity in 12 hr fasted male CD-1(ICR) mouse assessed as pathological damage in spleen at 2 g/Kg, IG measured after 14 days by H and E staining based analysis. The series is classed as tissue-based. The note with it: in vivo, po, 2000 mg/kg, 336 h, time 14 day.
The target of series [3] is T1, Cytochrome P450 3A4 (Homo sapiens, UniProt P08684). Kind of series: Inhibition of CYP3A4 in human liver microsomes using midazolam as substrate incubated for 15 to 45 mins in presence of NADPH. The series is classed as ADME, Microsome. On the technique in general: Microsomes from liver hold many membrane-bound enzymes, among them those of drug oxidation.
Series [4] can be described thus: Acute toxicity in 12 hr fasted male CD-1 (ICR) mouse assessed as death at 2 g/Kg, IG measured after 14 days. The note with it: in vivo, po, 2000 mg/kg, 336 h, time 14 day.
The nature of series [5]: Resistant factor, ratio of EC50 for antiviral activity against HIV-1 IIIB harboring reverse transcriptase Y188L mutant to EC50 for antiviral activity against wild type HIV-1 IIIB. The series is classed as functional.
The nature of series [6]: Half life in Sprague-Dawley rat at 1 mg/kg, iv measured upto 24 hrs by LC-MS/MS analysis. The series is classed as ADME, organism-based. The note with it: in vivo.
Series [7] addresses T1, Cytochrome P450 3A4. Kind of series: Inhibition of CYP3A4 in human liver microsomes using testosterone as substrate incubated for 15 to 45 mins in presence of NADPH. The series is classed as ADME, Microsome.
The nature of series [8]: Acute toxicity in 12 hr fasted female CD-1(ICR) mouse assessed as pathological damage in kidney at 2 g/Kg, IG measured after 14 days by H and E staining based analysis. The series is classed as tissue-based. As to conditions: in vivo, po, 2000 mg/kg, 336 h, time 14 day.
Series [9] concerns the target Voltage-gated inwardly rectifying potassium channel KCNH2 (Homo sapiens, UniProt Q12809). Kind of series: Inhibition of hERG expressed in CHO cells by Qpatch assay. The series is classed as toxicity, cell-based.
Series [10] is described as follows: Selectivity index, ratio of CC50 for cytotoxicity against human MT4 cells to EC50 for antiviral activity against wild type HIV-1 IIIB infected in human MT4 cells. The series is classed as toxicity, cell-based. As to conditions: read-out: Ratio CC50/EC50.
The subject of series [11] is Human immunodeficiency virus 1. Kind of series: Antiviral activity against wild type HIV-1 IIIB harboring reverse transcriptase Y188L mutant infected in human MT4 cells assessed as protection against virus-induced cytopathic effect incubated for 5 days by MTT assay. The series is classed as functional, organism-based. As to conditions: Human immunodeficiency virus 1, IIIB, MT4, 120 h.

In series [12] the test system is Human immunodeficiency virus 1. Kind of series: Antiviral activity against wild type HIV-1 IIIB harboring reverse transcriptase E138K mutant infected in human MT4 cells assessed as protection against virus-induced cytopathic effect incubated for 5 days by MTT assay. The note with it: Human immunodeficiency virus 1, IIIB, MT4, 120 h. The series is classed as functional, organism-based. On the technique in general: Cytopathic effects are the visible damage that an infection or toxin causes in cultured cells.

Series [13] can be described thus: Cmax in Sprague-Dawley rat at 10 mg/kg, po measured upto 24 hrs by LC-MS/MS analysis. The series is classed as ADME, organism-based. Further details: time < 24 hrs, dose 10 mg/kg, route po. As to conditions: in vivo.
Series [14] relates to Human immunodeficiency virus 1. Kind of series: Antiviral activity against wild type HIV-1 IIIB harboring reverse transcriptase K103N mutant infected in human MT4 cells assessed as protection against virus-induced cytopathic effect incubated for 5 days by MTT assay. The series is classed as functional, organism-based. As to conditions: Human immunodeficiency virus 1, IIIB, MT4, 120 h.

The nature of series [15]: Acute toxicity in 12 hr fasted male CD-1(ICR) mouse assessed as behavioral abnormalities at 2 g/Kg, IG measured after 14 days. The note with it: in vivo, po, 2000 mg/kg, 336 h, time 14 day.
Series [16] in a line: Acute toxicity in 12 hr fasted female CD-1(ICR) mouse assessed as pathological damage in lung at 2 g/Kg, IG measured after 14 days by H and E staining based analysis. The series is classed as tissue-based. As to conditions: in vivo, po, 2000 mg/kg, 336 h, time 14 day.
The target of a further series is Cytochrome P450 2D6 (Homo sapiens, UniProt P10635). Kind of series: Inhibition of CYP2D6 in human liver microsomes using dextromethorphan as substrate incubated for 15 to 45 mins in presence of NADPH. The series is classed as ADME, Microsome.
The nature of series [17]: Acute toxicity in 12 hr fasted male CD-1(ICR) mouse assessed as pathological damage in heart at 2 g/Kg, IG measured after 14 days by H and E staining based analysis. The series is classed as tissue-based. As to conditions: in vivo, po, 2000 mg/kg, 336 h, time 14 day.
Series [18] is described as follows: Resistant factor, ratio of EC50 for antiviral activity against HIV-1 IIIB harboring reverse transcriptase […] mutant to EC50 for antiviral activity against wild type HIV-1 IIIB. The series is classed as functional.
A short description of series [19]: Acute toxicity in 12 hr fasted male CD-1(ICR) mouse assessed as pathological damage in kidney at 2 g/Kg, IG measured after 14 days by H and E staining based analysis. The series is classed as tissue-based. The note with it: in vivo, po, 2000 mg/kg, 336 h, time 14 day.
The nature of series [20]: Acute toxicity in 12 hr fasted male CD-1(ICR) mouse assessed as pathological damage in liver at 2 g/Kg, IG measured after 14 days by H and E staining based analysis. The note with it: in vivo, po, 2000 mg/kg, 336 h, time 14 day. The series is classed as tissue-based.
A further series addresses Cytochrome P450 2C9 (Homo sapiens, UniProt P11712). Kind of series: Inhibition of CYP2C9 in human liver microsomes using tolbutamide as substrate incubated for 15 to 45 mins in presence of NADPH.

T1 sequence (P08684 whole entry): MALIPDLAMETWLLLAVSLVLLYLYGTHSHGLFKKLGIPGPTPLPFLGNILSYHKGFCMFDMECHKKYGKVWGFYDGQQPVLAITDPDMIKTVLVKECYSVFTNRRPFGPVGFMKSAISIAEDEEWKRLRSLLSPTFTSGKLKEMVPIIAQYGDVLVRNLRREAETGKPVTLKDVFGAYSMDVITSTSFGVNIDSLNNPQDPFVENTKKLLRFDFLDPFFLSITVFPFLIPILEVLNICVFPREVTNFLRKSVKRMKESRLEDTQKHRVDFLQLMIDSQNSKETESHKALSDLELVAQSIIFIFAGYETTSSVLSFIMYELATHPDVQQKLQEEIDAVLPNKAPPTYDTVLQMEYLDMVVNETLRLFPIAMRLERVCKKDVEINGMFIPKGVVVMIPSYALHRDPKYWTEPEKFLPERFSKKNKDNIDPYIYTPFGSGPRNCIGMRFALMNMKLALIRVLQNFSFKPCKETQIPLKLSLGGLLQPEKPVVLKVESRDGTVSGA
Chain of Cytochrome P450 2D6 (P10635 whole entry): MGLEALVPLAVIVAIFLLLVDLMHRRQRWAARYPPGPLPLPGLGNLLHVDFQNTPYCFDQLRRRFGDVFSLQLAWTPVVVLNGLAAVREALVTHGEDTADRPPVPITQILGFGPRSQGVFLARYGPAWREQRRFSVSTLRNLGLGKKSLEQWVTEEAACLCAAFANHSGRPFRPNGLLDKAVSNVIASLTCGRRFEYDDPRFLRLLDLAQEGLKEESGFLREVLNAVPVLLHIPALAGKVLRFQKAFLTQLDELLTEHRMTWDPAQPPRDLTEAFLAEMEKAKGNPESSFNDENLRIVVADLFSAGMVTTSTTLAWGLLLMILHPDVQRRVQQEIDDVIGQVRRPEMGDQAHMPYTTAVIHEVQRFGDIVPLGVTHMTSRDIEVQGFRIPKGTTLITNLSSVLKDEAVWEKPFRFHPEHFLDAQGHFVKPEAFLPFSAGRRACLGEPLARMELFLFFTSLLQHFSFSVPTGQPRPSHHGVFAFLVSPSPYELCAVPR
Chain of Cytochrome P450 2C9 (P11712 whole entry): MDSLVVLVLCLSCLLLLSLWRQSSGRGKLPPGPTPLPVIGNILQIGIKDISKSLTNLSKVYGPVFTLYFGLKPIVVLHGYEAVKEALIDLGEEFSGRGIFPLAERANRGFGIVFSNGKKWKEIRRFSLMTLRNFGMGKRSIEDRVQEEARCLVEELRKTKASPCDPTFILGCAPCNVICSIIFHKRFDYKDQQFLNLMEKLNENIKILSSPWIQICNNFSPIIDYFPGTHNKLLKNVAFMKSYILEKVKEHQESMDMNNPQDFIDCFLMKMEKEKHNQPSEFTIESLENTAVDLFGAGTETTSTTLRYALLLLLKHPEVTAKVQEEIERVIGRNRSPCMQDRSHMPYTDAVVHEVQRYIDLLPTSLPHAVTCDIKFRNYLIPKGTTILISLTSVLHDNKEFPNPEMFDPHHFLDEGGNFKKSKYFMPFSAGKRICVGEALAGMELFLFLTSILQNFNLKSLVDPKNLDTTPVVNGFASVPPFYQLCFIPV
Chain of Voltage-gated inwardly rectifying potassium channel KCNH2 (Q12809 whole entry): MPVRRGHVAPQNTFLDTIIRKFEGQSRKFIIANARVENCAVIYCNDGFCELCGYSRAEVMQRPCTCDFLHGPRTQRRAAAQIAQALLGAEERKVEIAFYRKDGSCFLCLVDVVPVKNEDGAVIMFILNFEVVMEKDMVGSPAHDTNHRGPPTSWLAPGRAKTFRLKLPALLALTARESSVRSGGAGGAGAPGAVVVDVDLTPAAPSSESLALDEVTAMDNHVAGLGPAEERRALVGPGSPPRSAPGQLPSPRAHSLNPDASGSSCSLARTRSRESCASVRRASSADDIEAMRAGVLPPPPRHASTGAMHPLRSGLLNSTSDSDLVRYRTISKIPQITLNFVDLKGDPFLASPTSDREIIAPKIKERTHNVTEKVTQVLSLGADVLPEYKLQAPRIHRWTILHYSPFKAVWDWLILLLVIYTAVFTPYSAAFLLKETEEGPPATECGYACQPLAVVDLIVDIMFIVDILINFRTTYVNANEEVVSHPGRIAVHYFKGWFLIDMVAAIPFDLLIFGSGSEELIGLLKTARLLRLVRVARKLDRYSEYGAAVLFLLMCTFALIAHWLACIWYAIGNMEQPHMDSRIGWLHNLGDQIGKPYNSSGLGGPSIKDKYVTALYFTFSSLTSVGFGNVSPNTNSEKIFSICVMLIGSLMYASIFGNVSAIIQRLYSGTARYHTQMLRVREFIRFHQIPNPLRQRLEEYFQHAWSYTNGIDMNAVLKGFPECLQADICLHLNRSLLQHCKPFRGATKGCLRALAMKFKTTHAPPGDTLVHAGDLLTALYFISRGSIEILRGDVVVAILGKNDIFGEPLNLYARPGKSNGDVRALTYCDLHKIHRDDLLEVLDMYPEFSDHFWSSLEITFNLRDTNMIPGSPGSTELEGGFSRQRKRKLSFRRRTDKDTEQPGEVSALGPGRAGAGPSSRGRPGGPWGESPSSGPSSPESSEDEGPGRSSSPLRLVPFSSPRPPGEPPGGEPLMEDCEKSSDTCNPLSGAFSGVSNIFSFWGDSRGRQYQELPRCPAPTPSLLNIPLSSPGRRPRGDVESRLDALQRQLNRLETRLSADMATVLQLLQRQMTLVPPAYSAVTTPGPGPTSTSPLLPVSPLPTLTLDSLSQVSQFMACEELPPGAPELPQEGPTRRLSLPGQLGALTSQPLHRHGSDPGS

A word on the MRT last: it is a mean duration of stay, worked out from the concentration-time curve. Usually IC50 stands for the concentration at which inhibition is half-maximal. As usually defined, the half-life is the time in which the quantity being followed falls by half. A lower half-life goes with fast loss. In general, EC50 refers to the concentration needed to bring the measured effect to its halfway point. A word on the Cmax: it is the highest concentration seen after dosing. In series [1], `CONC(=O)c1cnc(Nc2ccc(C#N)cc2)nc1Oc1c(C)cc(-c2ccc(C#N)cc2)cc1C` had a mean residence time (MRT last) at 24 h of 4.54 h. The Activity entry in series [2], in series [4], in series [8], in series [15], in [16] and in series [17] was “Non-Toxic” throughout. For the same compound, the Activity entry in series [19] and in [20] was “Non-Toxic” throughout. Besides, the concentration for half-maximal inhibition (IC50) was over 50 µM on Cytochrome P450 3A4 [3]; over 50 µM at Cytochrome P450 3A4 [7]; over 40 µM in series [9]; over 50 µM on Cytochrome P450 2D6; 18.5 µM at Cytochrome P450 2C9. Besides, the “Ratio EC50” value in [5] is on record as 23; in series [18], 5.7. In series [6], the half-life is 3.66 h. Also, the selectivity ratio in series [10] was over 17400. Moreover, the EC50 was 0.052 µM in series [11], 0.006 µM in series [12] and 0.008 µM in series [14]. Also, the Cmax in [13] came out at 616 ng/mL.
